Measured values published in publication PMC4191406, “Tumor-targeted in vivo gene silencing via systemic delivery of cRGD-conjugated siRNA” (Nucleic Acids Research, 2014).

Assay: Serum cytokines by ELISA (innate immune response)
Type: in vivo, athymic nude mice (nu/nu)
Conditions: single injection 1 nmol, 6 and 24 h after the injection, n = 3, versus saline
Procedure: Athymic nude female mice (nu/nu) were injected with 1 nmol (∼0.753 mg/kg; n = 3) of cRGD-siRNA or 1 nmol of cRGD alone (∼0.045 mg/kg; n = 3) in 150 μl of saline. Mice (n = 3) injected with saline alone (200 μl) were used as negative controls. Six hours and 24 h after the injection, 300 μl of blood was drawn from each mouse and the serum was collected. Levels of serum cytokines IFN-α, IFN-γ, IL-6 and IL-12 were determined by ELISA, following manufacturer's recommendations (eBioscience/Affymetrix, USA).

serum levels of interferons α and γ, interleukins 6 and 12: No significant difference
Compound: N=C(N)NCCC[C@@H]1NC(=O)[C@H](CCCCNC(=O)COCCOCCNC(=O)CCN2C(=O)C=CC2=O)NC(=O)[C@@H](Cc2ccccc2)NC(=O)[C@H](CC(=O)O)NC(=O)CNC1=O [cRGD, cyclo(Arg-Gly-Asp-D-Phe-Lys[PEG-MAL])]
